Data set [1] relates to mice. As to the kind of experiment: Open field test (locomotor activity) after oATP. The data set is classed as in vivo, mouse. The following applies: 10 μM or 50 μM oATP, 15 minutes after injection, 30 minutes.
Procedure: Locomotor activity in mice treated with control vehicle solution, 10 μM oATP, or 50 μM oATP was assessed 15 minutes after injection by placing individual animal in a dark-grey wooden box (30×30×40 cm). Locomotor activity was monitored for a period of 30 minutes using a video camera. Overall distance travelled by the animals during the testing period was then analysed by means of VideoMot2 computer software (TSE GmbH, Bad Homburg).
The target in data set [2] is T1, P2X7R (Mus musculus, UniProt Q9Z1M0).
T1 construct: endogenous in cells; host or cells: HT-22 (immortalised mouse hippocampal cell line)
T1 sequence (Q9Z1M0 1-595): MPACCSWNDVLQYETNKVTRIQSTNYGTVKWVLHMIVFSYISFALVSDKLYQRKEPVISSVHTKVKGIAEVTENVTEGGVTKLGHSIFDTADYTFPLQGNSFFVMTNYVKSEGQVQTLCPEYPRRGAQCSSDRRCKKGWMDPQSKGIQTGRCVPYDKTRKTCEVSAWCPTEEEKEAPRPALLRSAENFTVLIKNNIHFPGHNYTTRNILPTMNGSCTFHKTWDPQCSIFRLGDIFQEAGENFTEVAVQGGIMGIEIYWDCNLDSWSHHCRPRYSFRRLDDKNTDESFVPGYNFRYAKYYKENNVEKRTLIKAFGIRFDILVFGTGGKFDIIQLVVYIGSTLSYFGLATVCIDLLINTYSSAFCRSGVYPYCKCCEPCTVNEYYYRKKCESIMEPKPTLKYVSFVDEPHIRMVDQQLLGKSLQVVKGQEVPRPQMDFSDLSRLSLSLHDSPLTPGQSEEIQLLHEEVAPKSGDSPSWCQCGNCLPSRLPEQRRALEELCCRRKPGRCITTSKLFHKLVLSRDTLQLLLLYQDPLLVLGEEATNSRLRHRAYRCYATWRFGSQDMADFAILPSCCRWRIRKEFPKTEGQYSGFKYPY
As to the kind of experiment: Calcium influx into HT-22 cells (Oregon green AM ester). Type of data set: cell-based. The following applies: 100 mM oATP for 1 hour before BzATP. The source says: Since P2X7R is an ATP-gated ion channel which allows the entry of calcium and sodium ions into cells, a method for identifying P2X7R agonist was established by monitoring calcium influx into HT-22 cells. […] Calcium movement into the cells was visualised under a fluorescent microscope with a fluorescein filter (wavelength 492/517 nm). Oregon green AM ester is a fluorescent dye that binds to intracellular calcium.
Activation of P2X7R by the agonist was inhibited by oATP (FIG. 18) as illustrated by the absence of green fluorescence in the cells.

The test system of data set [3] is DBA/201a mice. In words: Porsolt's forced swim test after intrahippocampal P2X7R antagonists. Type of data set: in vivo, mouse. The following applies: 100 nM KN-62 or 10 μM oATP, 1 μl each side, dentate gyrus, 24 hours after injection. The source says:
In the present example, the P2X7R antagonists were directly injected into the dentate gyrus region of the hippocampus. Briefly, three months old male mice were bilaterally implanted with guide cannulae (23 gauge, length 8 mm) by means of a stereotactic instrument (David Kopf Instruments). The coordinates, in relation to bregma, were −1.5 mm posterior, ±1.0 mm lateral, and −0.8 mm ventral. Mice were allowed to recover for 10 to 13 days after surgery. Following this recovery period, mice were injected with 1 μl vehicle solution (0.01% DMSO, Sigma), or 100 nM KN-62 (Sigma, prepared in 0.01% DMSO), or 10 μM oATP (Sigma, prepared in PBS) in each side of the brain over a period of 60 seconds. All injections were performed using a 9 mm-31 gauge needle inserted into the guide cannulae and connected via tubing to a 10 μl Hamilton syringe.
The behaviour of individual mice was assessed using the Porsolt's forced swim test 24 hours after injection of vehicle solution, KN-62, or oATP. A pre-exposure of 5 minutes to the test was performed 15-17 minutes after administration of vehicle, KN-62, or oATP. A description of the Porsolt's forced swim test is given in example 9. […] Observed results were verified statistically using one-way MANOVA test.

The target in data set [4] is T1, P2X7R. In words: Entry of ethidium bromide into HT-22 cells. The data set is classed as cell-based. As to conditions: pre-incubation 60 minutes with 100 μM o-ATP before agonist and ethidium bromide. The source says:
Yet another method of measuring P2X7R activity involves the entry of ethidium bromide into P2X7R expressing cells. Activation of P2X7R by an agonist allows the entry of ethidium bromide which binds nuclear DNA and emits a fluorescence signal. Alternatively, the propidium dye YOPRO-1 can be substituted for ethidium bromide. An increase in fluorescence can be used as a measure of P2X7 receptor activation. Therefore, the assay can be used to test and quantify the effect of an agent or compound with agonist properties on P2X7R. In the present example, 10^3 HT-22 cells were seeded per well in a 96-well flat bottom microtitre plates and incubated at 37° C./5% CO2 in DMEM medium containing 10% FCS until the cells attached to the culture surface. […] The number of fluorescent cells which have integrated the ethidium bromide to the DNA can then be counted using a fluorescent microscope (Zeiss, Germany). […] Alternatively, ethidium bromide fluorescence can be measured using a Perkin-Elmer fluorescent plate reader (excitation 520 nm, emission 595 nm, slit widths: Ex 15 nm, Em 20 nm). From the readings obtained, a pIC50 figure can be calculated for each candidate agent or compound. […] The specificity of an agonist for P2X7R can be evaluated by pre-incubation of the cells for 60 minutes with 100 μM o-ATP before adding the agonist and ethidium bromide dye.

As to `Nc1ncnc2c1ncn2[C@@H](C=O)O[C@@H](C=O)COP(=O)(O)OP(=O)(O)OP(=O)(O)O` [oATP, Oxidized ATP], the “locomotor activity (overall distance travelled)” value in data set [1] is on record as “No difference in locomotor activity”. Further, the “activation of P2X7R by the agonist (calcium influx) after antagonist pre-treatment” value in data set [2] is reported as “inhibited”. Further, in data set [3], the “active escape attempts (time, frequency, latency of struggling)” value is “no changes” and the “passive behaviour (time, frequency, latency of floating)” value is listed as “no changes”. Moreover, the “number of fluorescent cells after antagonist pre-incubation” value in data set [4] was “reduction in the number of fluorescent cells”.

(Values after patent US20060110385A1, “Means and methods for diagnosing and treating affective disorders” (Affectis Pharmaceuticals AG, priority 2003, published 2006).)
